US9328163B2, “Post-translationally modified neurotrophin antibodies” (INSTITUT PASTEUR, priority 2006, dated 2016)

What was measured:
motor neurons = assay: Purified motor neuron cultures, motor neuron survival by direct counting; type: cell-based, rat; conditions: for induction of motor neuron death: BSA 100 ng/mL, FGF-1 or FGF-2 10 ng/mL previously treated with peroxynitrite 1 mM
Experimental: Media and sera were purchased from Gibco-Invitrogen. Motor neuron cultures were prepared from embryonic day 15 (E15) rat spinal cord by a combination of metrizamide gradient centrifugation and immunopanning with a monoclonal antibody directed against rat p 75^NTR (mouse mAb Ig192) as previously described. Motor neurons were plated at a density of 350 cells/cm^2 on 4 well multidishes (Nunclon) precoated with polyornithine-laminin. Cultures were maintained in Neurobasal™ medium supplemented with 2% horse serum, […] L-glutamate, 25 μM 2-mercaptoethanol, 0.5 mM L-glutamine, and 2% B-27 supplement (Gibco-Invitrogen). Motor neuron survival was maintained by the addition of GDNF (1 ng/mL; Sigma) to the culture media. Motor neuron death induced by trophic factor deprivation (NONE, without GDNF) was determined in all experiments as a control, and never was greater than 50%. Treatments with the different reagents were performed 3 hours after motor neuron plating. Motor neuron survival was assessed after 48 hours by direct counting of all cells displaying intact neurites longer than 4-cell bodies in diameter, in a prefixed area of the dish.
(§1) Treatment with antisense oligonucleotides to down-regulate p75^NTR expression was performed as described previously. Briefly, HPLC-purified phosphorothioate antisense and missense oligonucleotides (5 μM; Integrated DNA Technologies) were added to the cell suspension of purified motor neurons and repeatedly pipetted before seeding. The oligonucleotides were present the whole time of culture. To determine the efficiency of uptake, cultures were incubated with p75^NTR antisense oligonucleotides with a 5′ 56-FAM fluorescent label. Cells were transferred to the heated stage (37° C.) of a Zeiss LSM510 confocal microscope with constant 5% CO2. Fluorescence was imaged with a 63× oil immersion objective. Uptake efficiency was >96% in all experiments. Sequences used were: p75^NTR antisense, 5′-ACCTGCCCTCCTCATTGCA-3′ (SEQ ID NO: 5) and p 75^NTR missense, 5′-CTCCCACTCGTCATTCGAC-3′ (SEQ ID NO: 6).

NGF = assay: Tyrosine nitration and oligomerization of NGF by peroxynitrite (SDS-PAGE, Western blot anti-nitrotyrosine); type: biochemical, mouse; conditions: urate 20 to 1000 μM; peroxynitrite 1 mM
Experimental: Peroxynitrite concentration was determined spectrophotometrically at 302 nm (ε=1,670 M^−1 cm^−1). Diluted stock solutions were freshly prepared in 0.01 M NaOH. The reactions of NGF (Harlan; Indianapolis, USA) with different concentrations of peroxynitrite (0.25 mM to 2 mM) was performed at a protein concentration of 0.2 mg/mL to 1.0 mg/mL obtaining similar results. The reaction was performed in 50 mM sodium phosphate buffer, pH 7.4, containing 20 mM sodium bicarbonate. NGF was subjected to 10 bolus addition of peroxynitrite (1 μL each) to reach the desired final concentration of peroxynitrite. One bolus of peroxynitrite stock solution was rapidly added on the top of the test tube and mixed by vortexing for 3 sec. The procedure was repeated 10 times. To exclude a potential non-specific effect of peroxynitrite treatment because of pH changes or contaminants, control experiments were performed using diluted NaOH or decomposed peroxynitrite (reverse order addition, ROA). Treatment of bovine serum albumin (Sigma), FGF-1 (Sigma) and FGF-2 (R&D Systems) with peroxynitrite was performed as described above at a concentration of 0.2 mg/mL.
SDS-PAGE was performed in 15% polyacrylamide minigels under reducing conditions. Samples were boiled for 5 min in LaemLi buffer before running. Proteins were visualized by Coomassie Blue or Silver staining. […]

purified motor neurons = assay: Uptake of fluorescently labelled antisense oligonucleotides (confocal microscopy); type: cell-based, rat; conditions: antisense oligonucleotides with 5′ 56-FAM fluorescent label; all experiments
Experimental: as §1

[1] = test system: Dorsal root ganglia explants; assay: Neurite outgrowth from dorsal root ganglia explants (GAP-43 immunofluorescence); type: cell-based; conditions: 100 ng/mL; 24 hours; E15 rat embryo ganglia
Experimental: Dorsal root ganglia explants from E15 rat embryos (that express both TrkA and p75^NTR) were cultured in Neurobasal media in the absence of trophic factors (NONE) or in the presence of NGF (100 ng/mL), NGF treated with peroxynitrite (100 ng/mL; nitroNGF-P) or NGF treated with tetranitromethane (nitroNGF-TNM). After 24 hours cultures were fixed with 4% paraformaldehyde and processed for immunofluorescence against GAP-43.

[2] = cultures maintained with GDNF (1 ng/mL), no exogenous nitric oxide, 48 h

COC(=O)CC[C@H](NC(=O)[C@H](CC(=O)OC)NC(=O)OCc1ccccc1)C(=O)N[C@H](C(=O)N[C@@H](CC(=O)OC)C(=O)CF)C(C)C [DEVD-fmk]
effect on motor neuron loss induced by peroxynitrite-treated NGF (motor neurons; DEVD-fmk 10 μM added every 24 hours, NGF-ONOO^− 100 ng/mL, 48 h): blocked

COC(=O)[C@@H](N)CCCNC(=N)N[N+](=O)[O-] [L-NAME]
effect on motor neuron loss induced by peroxynitrite-treated NGF (motor neurons; L-NAME 1 mM, NGF-ONOO^− 100 ng/mL, 48 h): prevented

O=C(O)c1ccc(/C2=C3\C=CC(=N3)/C(c3ccc(C(=O)O)cc3)=c3/cc/c4[n]3[Mn]([Cl])[n]3c2ccc3/C(c2ccc(C(=O)O)cc2)=C2/C=CC(=N2)\C=4c2ccc(C(=O)O)cc2)cc1 [MnTBAP]
effect on motor neuron loss induced by peroxynitrite-treated NGF (motor neurons; MnTBAP 100 μM, NGF-ONOO^− 100 ng/mL, 48 h): prevented

Oc1nc(O)c2nc(O)[nH]c2n1 [urate]
effect on motor neuron loss induced by peroxynitrite-treated NGF (motor neurons; urate 100 nM added to culture, NGF-ONOO^− 100 ng/mL, 48 h): did not prevent motor neuron loss
effect on apoptotic activity of peroxynitrite-treated NGF (motor neurons; urate 200 μM present during peroxynitrite (1 mM) treatment of NGF, NGF 100 ng/mL, 48 h): abolished the apoptotic effect
effect on tyrosine nitration and oligomerization of NGF (NGF): prevented tyrosine nitration and oligomerization of NGF in a dose dependent manner

antisense: phosphorothioate p75^NTR antisense, 5′-ACCTGCCCTCCTCATTGCA-3′ (SEQ ID NO: 5) (DNA, all phosphorothioate, methylation of C not given here; further chemistry not fully specified)
effect on motor neuron apoptosis induced by native NGF in the presence of nitric oxide (motor neurons; oligonucleotides 5 μM, NGF 100 ng/mL plus DETA-NONOate 10 μM, 48 h): blocked
effect on apoptosis induced by peroxynitrite-treated NGF (motor neurons; oligonucleotides 5 μM, NGF-ONOO^− 100 ng/mL, 48 h): completely prevented
effect on loss of motor neurons induced by NGF-ONOO^− or NGF+NO (motor neurons; oligonucleotides added at plating, NGF-ONOO^− 100 ng/mL or NGF 100 ng/mL plus DETA-NONOate 10 μM, 48 h): completely blocked the loss of motor neurons
uptake efficiency (purified motor neurons): > 96%

peroxynitrite treated-BSA: bovine serum albumin (Sigma) treated with peroxynitrite
induction of motor neuron death (motor neurons; 48 h): did not induce motor neuron death

peroxynitrite treated-FGF-1: FGF-1 (Sigma) treated with peroxynitrite
induction of motor neuron death (motor neurons; 48 h): did not induce motor neuron death
induction of motor neuron death (motor neurons; 48 h, listed as nitro-FGF-1): do not exert any apoptotic effect

peroxynitrite treated-FGF-2: FGF-2 (R&D Systems) treated with peroxynitrite
induction of motor neuron death (motor neurons; 48 h): did not induce motor neuron death
induction of motor neuron death (motor neurons; 48 h, listed as nitro-FGF-2): do not exert any apoptotic effect

peroxynitrite-treated NGF: NGF (Harlan) treated with peroxynitrite; nitrated (Tyr52, Trp99), elutes as dimer, tetramer and octamer
peroxynitrite concentration at which NGF apoptotic activity reaches a plateau (motor neurons; NGF 10 ng/mL previously treated with indicated peroxynitrite concentrations, 48 h): higher than 0.5 mM
motor neuron loss (motor neurons; at 1 pg/mL in the presence of nitric oxide (DETA-NONOate 10 μM), 48 h): 33%
concentration inducing motor neuron death (as low as) (motor neurons; cultures maintained with GDNF (1 ng/mL), no exogenous nitric oxide, survival 48 h after treatment): 1 ng/mL
increase of potency to induce apoptosis of motor neurons (motor neurons; in the presence of nitric oxide, versus NGF): 10,000 fold
apoptotic activity relative to unmodified native NGF (motor neurons; through p75^NTR): 10,000 fold
concentration significantly inducing motor neuron loss (motor neurons; together with nitric oxide (NGF-ONOO^−+NO)): 1 pg/mL
neurite growth compared to NGF [1]: increased neurite growth

B1: NGF-ROA: control NGF treated with decomposed peroxynitrite (reverse order addition) (protein, UniProt P01139 122-241, looked up)
Beta-nerve growth factor: SSTHPVFHMGEFSVCDSVSVWVGDKTTATDIKGKEVTVLAEVNINNSVFRQYFFETKCRASNPVESGCRGIDSKHWNSYCTTTHTFVKALTTDEKQAAWRFIRIDTACVCVLSRKATRRG
modifications: Beta-nerve growth factor treated with decomposed peroxynitrite
effect on motor neuron survival (motor neurons; [2]): did not affect motor neuron survival
concentration significantly inducing motor neuron loss (motor neurons; in the presence of nitric oxide <50 nM from DETA-NONOate (10 μM), 48 h): higher than 10 ng/mL

B2: TNM-treated NGF: NGF (Harlan) treated with 40-fold molar excess of tetranitromethane; nitrated at Tyr52 and Tyr79 (protein)
chain: SSTHPVFHMGEFSVCDSVSVWVGDKTTATDIKGKEVTVLAEVNINNSVFRQYFFETKCRASNPVESGCRGIDSKHWNSYCTTTHTFVKALTTDEKQAAWRFIRIDTACVCVLSRKATR
motor neuron loss (motor neurons; in the absence of nitric oxide, 48 h): 32%
neurite growth compared to NGF [1]: increased neurite growth

B3: NGF: nerve growth factor, commercially available murine NGF (Harlan), non-nitrated (protein, listed as Mus musculus)
chain: B2 chain
effect on motor neuron survival (motor neurons; [2]): not sensitive
